Activity calls are given as the source filed them. The calls are words filed in the database; no cut-off is given here.
Experiments:
Assay type in all cases: cell-based
[1] = target: 5'-AMP-activated protein kinase catalytic subunit alpha-2 (Rattus norvegicus) (UniProt Q09137); assay: Inhibition of AMPK in rat IAR-20 cells assessed as phosphorylated protein level at 10 uM after 30 mins by Western blot analysis
[2] = target: 5'-AMP-activated protein kinase catalytic subunit alpha-2 (Rattus norvegicus) (UniProt Q09137); assay: Inhibition of AMPK in rat IAR-20 cells assessed as phosphorylated acetyl CoA carboxylase level at 10 uM after 30 mins by Western blot analysis
[3] = target: 5'-AMP-activated protein kinase catalytic subunit alpha-2 (Rattus norvegicus) (UniProt Q09137); assay: Activation of AMPK in rat IAR-20 cells assessed as phosphorylated protein level at 10 uM after 30 mins by Western blot analysis
[4] = target: 5'-AMP-activated protein kinase catalytic subunit alpha-2 (Rattus norvegicus) (UniProt Q09137); assay: Activation of AMPK in rat IAR-20 cells assessed as phosphorylated acetyl CoA carboxylase level at 10 uM after 30 mins by Western blot analysis

Sequence of 5'-AMP-activated protein kinase catalytic subunit alpha-2 (Rattus norvegicus) (Q09137 whole entry): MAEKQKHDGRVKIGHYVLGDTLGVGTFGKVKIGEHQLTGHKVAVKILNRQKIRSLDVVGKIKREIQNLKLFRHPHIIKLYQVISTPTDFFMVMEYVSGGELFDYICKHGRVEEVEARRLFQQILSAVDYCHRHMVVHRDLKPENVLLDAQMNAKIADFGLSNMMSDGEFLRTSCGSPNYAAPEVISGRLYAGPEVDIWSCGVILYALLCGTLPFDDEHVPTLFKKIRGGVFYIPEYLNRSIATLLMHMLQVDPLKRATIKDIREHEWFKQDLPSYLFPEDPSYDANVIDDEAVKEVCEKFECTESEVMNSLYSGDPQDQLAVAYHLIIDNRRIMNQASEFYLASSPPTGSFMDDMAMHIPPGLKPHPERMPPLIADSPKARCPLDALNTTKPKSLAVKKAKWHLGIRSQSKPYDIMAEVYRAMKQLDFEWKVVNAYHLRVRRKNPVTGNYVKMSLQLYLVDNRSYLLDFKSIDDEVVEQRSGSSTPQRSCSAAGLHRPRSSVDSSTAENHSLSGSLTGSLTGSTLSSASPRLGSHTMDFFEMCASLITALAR

Compound | inhibition [1] | inhibition [2] | Activity [3] | Activity [4]
Cc1c(O)c(C)c2c(c1O)C(=O)[C@](O)(Cc1ccc(O)cc1)CO2 | Active | Active |  | 
COc1ccc(CC2COc3c(OC)c(O)cc(O)c3C2=O)c(O)c1 (centres undefined) | Active | Active |  | 
COc1cc(O)c(C)c(O)c1C(=O)CCc1ccc(O)cc1 |  |  | Active | Active
Cc1c(O)cc2c(c1O)C(=O)[C@H](Cc1ccc(O)cc1)CO2 |  |  | Active | Active

Second part, the compound after the results:

inhibition [1] | inhibition [2] | Activity [3] | Activity [4] | Compound
Active | Active |  |  | COc1c(O)c(C)c(O)c2c1OC[C@@](O)(Cc1ccc(O)cc1)C2=O
 |  | Active | Active | Cc1c(O)c(C)c2c(c1O)C(=O)[C@H](Cc1ccc(O)cc1)CO2
 |  | Active | Active | COc1c(O)c(C)c(O)c2c1OC[C@@H](Cc1ccc(O)cc1)C2=O

— ChEMBL document CHEMBL2385060, “A dihydrochalcone and several homoisoflavonoids from Polygonatum odoratum are activators of adenosine monophosphate-activated protein kinase” (Bioorg Med Chem Lett, 2013)
